The target of experiment [1] is integrin αvβ5 (Homo sapiens, UniProt P06756+P18084). Put plainly: ELISA competition assay, integrin αvβ5. The class given is binding.
Experiment [2] deals with HRH1 (Homo sapiens, UniProt P35367). The experiment in a line: Safetyscan47 GPCR Calcium Flux, Agonist. The class given is cell-based. The note with it: for Emax: read-out: Max Response.
Experiment [3] has as its target T1, CHRM1 (Homo sapiens, UniProt P11229).
T1 sequence (P11229 1-460): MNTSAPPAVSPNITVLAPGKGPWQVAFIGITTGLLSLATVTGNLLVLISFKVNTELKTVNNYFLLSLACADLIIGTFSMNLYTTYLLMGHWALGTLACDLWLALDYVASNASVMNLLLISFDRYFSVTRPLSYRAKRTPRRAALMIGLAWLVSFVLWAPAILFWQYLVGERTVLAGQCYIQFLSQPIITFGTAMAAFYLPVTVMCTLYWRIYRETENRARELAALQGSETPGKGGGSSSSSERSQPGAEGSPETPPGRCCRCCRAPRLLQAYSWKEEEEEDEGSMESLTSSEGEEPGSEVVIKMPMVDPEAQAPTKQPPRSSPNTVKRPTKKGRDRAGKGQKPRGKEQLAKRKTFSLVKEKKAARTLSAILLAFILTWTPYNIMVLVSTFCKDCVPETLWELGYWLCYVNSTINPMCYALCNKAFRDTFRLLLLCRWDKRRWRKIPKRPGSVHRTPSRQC
The experiment in a line: Safetyscan47 GPCR Calcium Flux, Antagonist. The class given is cell-based. Particulars: for Emax: read-out: Max Response. In general terms: A change in cytosolic calcium serves as a functional read-out for many receptors and channels.

In experiment [4] the target is T2, EDNRA (Homo sapiens, UniProt P25101).
T2 sequence (P25101 21-427): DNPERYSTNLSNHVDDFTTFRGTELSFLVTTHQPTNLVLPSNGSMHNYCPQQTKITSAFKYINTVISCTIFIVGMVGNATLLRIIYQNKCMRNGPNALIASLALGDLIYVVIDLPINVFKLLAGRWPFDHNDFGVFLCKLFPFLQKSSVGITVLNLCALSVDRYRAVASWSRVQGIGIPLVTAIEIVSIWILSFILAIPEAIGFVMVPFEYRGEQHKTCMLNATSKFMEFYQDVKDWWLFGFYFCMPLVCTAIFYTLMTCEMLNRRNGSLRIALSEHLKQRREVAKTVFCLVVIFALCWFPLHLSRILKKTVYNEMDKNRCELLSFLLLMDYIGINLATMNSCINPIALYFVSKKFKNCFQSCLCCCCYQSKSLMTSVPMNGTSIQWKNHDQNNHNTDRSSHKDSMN
The experiment in a line: Safetyscan47 GPCR Calcium Flux, Antagonist. The note with it: for Emax: read-out: Max Response. The class given is cell-based.

The target of experiment [5] is HTR2B (Homo sapiens, UniProt P41595). The experiment in a line: Safetyscan47 GPCR Calcium Flux, Antagonist. The class given is cell-based. Particulars: for Emax: read-out: Max Response.
The target in experiment [6] is DRD2S (Homo sapiens, UniProt P14416). The experiment in a line: Safetyscan47 GPCR cAMP, Agonist. The note with it: for Emax: read-out: Max Response. The class given is cell-based.
For experiment [7], the target named is T3, HTR3A (Homo sapiens, UniProt P46098).
T3 sequence (P46098 24-478): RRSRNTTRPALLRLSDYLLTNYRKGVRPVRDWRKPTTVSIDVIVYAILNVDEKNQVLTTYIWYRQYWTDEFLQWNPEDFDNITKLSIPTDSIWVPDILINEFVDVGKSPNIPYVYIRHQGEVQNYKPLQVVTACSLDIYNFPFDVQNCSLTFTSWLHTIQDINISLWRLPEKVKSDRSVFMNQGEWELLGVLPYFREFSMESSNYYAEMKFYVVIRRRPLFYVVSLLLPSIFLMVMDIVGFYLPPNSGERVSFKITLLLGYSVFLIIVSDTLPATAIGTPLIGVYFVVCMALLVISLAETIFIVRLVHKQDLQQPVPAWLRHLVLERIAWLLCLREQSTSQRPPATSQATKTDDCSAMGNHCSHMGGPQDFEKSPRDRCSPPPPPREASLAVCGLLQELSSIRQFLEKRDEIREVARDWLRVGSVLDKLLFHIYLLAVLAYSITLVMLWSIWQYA
The experiment in a line: Safetyscan47 Ion Channel, Opener. The class given is cell-based. Particulars: for Emax: read-out: Max Response.

The target in experiment [8] is T4, AR (Homo sapiens, UniProt P10275).
T4 sequence (P10275 1-920): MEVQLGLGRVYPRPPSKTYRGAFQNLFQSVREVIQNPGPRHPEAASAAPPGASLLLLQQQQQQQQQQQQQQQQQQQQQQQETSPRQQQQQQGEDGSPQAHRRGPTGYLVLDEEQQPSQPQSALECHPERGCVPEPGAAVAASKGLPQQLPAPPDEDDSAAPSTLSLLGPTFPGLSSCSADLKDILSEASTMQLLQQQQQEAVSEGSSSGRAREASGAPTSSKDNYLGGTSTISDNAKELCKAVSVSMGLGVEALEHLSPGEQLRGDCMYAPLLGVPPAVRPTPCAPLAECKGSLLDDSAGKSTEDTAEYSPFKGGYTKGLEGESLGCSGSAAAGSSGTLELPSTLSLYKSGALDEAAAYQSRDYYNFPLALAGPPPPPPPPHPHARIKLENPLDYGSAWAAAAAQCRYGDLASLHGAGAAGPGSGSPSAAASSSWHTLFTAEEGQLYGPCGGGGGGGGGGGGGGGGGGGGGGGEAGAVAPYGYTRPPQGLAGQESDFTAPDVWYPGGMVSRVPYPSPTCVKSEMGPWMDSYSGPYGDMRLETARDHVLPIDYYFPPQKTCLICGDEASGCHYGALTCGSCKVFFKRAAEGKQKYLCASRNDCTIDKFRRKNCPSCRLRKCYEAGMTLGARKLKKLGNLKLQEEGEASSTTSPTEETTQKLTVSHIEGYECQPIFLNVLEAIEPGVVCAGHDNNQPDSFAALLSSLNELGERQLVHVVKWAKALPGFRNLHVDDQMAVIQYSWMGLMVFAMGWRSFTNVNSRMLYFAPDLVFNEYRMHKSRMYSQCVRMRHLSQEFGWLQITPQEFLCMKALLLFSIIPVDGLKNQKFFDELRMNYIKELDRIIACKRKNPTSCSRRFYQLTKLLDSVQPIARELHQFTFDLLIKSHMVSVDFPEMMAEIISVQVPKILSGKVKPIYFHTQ
The experiment in a line: Safetyscan47 NHR Nuclear Translocation, Antagonist. Particulars: for Emax: read-out: Max Response. The class given is cell-based.

The target in experiment [9] is DAT (Homo sapiens, UniProt Q01959). Put plainly: Safetyscan47 Transporter, Blocker. Particulars: for Emax: read-out: Max Response. The class given is cell-based.
Experiment [10] deals with NET (Homo sapiens, UniProt P23975). The experiment in a line: Safetyscan47 Transporter, Blocker. The class given is cell-based. Particulars: for Emax: read-out: Max Response.

Bridge positions count the residues as written; N and C are the ends. Side chains are listed from the residue outwards. Peptide text beside a SMILES is read from it. * marks the point of attachment. Butanoyl(4-(4-I-phenyl)) = O=C(CCCc1ccc(I)cc1)*; PEG2 = NCCOCCOCCC(=O)O

Chain of HTR2B (P41595 whole entry): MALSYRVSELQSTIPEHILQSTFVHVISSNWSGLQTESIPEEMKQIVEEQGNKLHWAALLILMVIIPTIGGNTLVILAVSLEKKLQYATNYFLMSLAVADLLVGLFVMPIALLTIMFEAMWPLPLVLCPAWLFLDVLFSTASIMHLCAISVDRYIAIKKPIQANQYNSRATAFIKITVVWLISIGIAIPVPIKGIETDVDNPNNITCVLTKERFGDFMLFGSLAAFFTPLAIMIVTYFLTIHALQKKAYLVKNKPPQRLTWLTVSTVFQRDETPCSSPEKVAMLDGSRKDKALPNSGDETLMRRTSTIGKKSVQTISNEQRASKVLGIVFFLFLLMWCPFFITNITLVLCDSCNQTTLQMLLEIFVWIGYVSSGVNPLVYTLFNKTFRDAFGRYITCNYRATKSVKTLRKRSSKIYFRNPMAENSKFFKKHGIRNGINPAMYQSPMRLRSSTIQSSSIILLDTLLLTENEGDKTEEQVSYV
Chain of DRD2S (P14416 1-414 isoform P14416-2): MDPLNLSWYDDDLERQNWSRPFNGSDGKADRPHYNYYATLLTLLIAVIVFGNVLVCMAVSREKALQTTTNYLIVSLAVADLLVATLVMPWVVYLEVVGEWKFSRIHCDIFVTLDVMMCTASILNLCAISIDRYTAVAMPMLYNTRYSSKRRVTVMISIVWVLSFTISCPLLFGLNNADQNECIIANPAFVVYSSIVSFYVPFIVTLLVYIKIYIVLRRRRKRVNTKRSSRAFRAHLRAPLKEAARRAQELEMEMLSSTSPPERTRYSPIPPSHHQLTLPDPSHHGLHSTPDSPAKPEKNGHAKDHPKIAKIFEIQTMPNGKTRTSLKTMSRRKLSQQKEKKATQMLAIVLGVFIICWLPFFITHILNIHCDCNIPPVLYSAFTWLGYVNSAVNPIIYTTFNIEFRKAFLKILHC
Chain of DAT (Q01959 whole entry): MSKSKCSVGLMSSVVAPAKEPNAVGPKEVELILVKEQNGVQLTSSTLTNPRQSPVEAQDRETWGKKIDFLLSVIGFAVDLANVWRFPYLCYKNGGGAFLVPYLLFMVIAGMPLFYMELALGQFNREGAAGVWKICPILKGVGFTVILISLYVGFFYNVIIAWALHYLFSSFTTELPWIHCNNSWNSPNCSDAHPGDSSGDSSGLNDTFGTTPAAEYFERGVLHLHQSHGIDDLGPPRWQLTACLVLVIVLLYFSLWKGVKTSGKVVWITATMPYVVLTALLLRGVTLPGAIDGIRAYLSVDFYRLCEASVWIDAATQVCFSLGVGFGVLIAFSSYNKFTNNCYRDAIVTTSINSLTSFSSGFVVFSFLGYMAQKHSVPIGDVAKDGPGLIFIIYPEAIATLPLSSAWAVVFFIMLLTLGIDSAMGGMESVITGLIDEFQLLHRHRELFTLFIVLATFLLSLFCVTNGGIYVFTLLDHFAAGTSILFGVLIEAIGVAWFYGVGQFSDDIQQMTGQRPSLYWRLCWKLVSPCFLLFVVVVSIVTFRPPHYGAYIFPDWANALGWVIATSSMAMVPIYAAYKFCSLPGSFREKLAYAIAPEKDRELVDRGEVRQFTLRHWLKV
Chain of NET (P23975 whole entry): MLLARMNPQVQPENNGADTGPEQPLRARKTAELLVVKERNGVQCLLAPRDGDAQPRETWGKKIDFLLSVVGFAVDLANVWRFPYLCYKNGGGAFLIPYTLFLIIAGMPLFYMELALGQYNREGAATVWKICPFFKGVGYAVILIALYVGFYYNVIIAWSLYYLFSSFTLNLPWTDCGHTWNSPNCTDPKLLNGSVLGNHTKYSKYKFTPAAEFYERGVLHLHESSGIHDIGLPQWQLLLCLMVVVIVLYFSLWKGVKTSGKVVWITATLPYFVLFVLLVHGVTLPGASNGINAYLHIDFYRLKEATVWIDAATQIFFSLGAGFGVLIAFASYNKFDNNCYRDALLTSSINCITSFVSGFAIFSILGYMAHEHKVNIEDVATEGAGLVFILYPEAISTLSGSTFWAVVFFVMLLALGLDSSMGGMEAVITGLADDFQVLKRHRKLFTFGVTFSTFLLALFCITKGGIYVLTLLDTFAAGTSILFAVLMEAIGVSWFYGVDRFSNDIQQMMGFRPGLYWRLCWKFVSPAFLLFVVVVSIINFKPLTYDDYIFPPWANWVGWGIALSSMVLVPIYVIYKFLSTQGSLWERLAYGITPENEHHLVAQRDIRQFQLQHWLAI
Chain of HRH1 (P35367 whole entry): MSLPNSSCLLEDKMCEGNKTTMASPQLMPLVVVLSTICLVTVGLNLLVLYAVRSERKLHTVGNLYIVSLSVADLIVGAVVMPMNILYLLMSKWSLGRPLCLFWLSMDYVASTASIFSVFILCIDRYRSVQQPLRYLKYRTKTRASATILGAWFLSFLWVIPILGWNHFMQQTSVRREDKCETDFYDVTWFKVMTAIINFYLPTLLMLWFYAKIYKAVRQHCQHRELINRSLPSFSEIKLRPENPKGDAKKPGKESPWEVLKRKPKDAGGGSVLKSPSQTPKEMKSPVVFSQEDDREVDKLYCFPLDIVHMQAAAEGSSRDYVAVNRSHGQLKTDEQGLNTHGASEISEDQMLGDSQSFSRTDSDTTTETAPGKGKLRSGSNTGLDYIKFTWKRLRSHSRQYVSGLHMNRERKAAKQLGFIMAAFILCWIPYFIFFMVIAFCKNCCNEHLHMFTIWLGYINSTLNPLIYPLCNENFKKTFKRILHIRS
Chain of integrin αvβ5 (P06756 31-992 limits assumed): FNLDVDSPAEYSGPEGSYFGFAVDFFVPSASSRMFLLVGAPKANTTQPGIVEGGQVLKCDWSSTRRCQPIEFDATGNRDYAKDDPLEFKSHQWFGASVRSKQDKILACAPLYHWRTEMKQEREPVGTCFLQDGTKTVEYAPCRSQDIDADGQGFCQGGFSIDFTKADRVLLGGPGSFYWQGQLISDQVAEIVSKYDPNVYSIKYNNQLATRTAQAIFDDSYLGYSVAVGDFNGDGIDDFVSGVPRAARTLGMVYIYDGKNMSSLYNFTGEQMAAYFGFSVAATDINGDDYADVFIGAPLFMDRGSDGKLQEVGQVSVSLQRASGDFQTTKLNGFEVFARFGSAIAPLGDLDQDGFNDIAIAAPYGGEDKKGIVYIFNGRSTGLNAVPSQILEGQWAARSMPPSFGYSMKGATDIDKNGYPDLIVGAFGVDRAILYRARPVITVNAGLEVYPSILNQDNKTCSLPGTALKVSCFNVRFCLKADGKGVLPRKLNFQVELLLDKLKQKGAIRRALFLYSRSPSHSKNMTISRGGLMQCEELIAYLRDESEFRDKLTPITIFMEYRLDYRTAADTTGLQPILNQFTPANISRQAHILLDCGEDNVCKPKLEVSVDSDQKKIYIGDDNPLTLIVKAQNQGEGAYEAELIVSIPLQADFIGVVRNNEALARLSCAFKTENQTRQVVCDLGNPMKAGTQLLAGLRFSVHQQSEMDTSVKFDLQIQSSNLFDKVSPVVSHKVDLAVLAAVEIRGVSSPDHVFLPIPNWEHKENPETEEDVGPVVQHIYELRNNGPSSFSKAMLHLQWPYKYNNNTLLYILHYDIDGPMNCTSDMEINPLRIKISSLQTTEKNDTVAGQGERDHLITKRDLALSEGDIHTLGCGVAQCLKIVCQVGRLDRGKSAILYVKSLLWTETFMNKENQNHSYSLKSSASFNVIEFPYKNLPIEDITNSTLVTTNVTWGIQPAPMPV
Chain of integrin αvβ5 (P18084 24-719 limits assumed): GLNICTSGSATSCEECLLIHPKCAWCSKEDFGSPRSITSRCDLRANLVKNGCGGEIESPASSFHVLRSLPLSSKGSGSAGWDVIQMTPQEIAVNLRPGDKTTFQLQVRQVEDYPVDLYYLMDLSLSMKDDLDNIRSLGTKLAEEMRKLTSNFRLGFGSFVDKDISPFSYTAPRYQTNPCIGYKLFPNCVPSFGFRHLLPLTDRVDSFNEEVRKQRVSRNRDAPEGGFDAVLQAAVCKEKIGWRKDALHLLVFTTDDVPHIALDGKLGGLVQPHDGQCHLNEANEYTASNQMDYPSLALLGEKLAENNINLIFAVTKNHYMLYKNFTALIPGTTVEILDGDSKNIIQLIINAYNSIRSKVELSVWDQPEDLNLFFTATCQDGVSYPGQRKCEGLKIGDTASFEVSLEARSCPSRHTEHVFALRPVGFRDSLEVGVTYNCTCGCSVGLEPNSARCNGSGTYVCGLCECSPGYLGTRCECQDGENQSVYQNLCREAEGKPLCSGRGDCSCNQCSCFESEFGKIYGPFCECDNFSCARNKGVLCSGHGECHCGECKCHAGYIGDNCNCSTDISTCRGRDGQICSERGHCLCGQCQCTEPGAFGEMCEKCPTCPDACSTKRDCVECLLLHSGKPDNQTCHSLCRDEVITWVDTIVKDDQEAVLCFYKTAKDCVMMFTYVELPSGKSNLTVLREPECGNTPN

As a reminder, the IC50 is the midpoint of a concentration-inhibition curve. The EC50 is the concentration giving half of the maximal effect. Turning to `CC[C@H](C)[C@H](NC(=O)[C@H](CC(C)C)NC(=O)[C@H](CC(=O)O)NC(=O)CNC(=O)[C@H](CCCNC(=N)N)NC(=O)[C@@H](NC(=O)[C@H](Cc1ccccc1)NC(=O)[C@H](Cc1ccc(O)cc1)NC(=O)[C@@H]1CCC(=O)NCC(=O)NCC(=O)N[C@@H](CCCNC(=N)N)C(=O)NCC(=O)N[C@@H](Cc2c[nH]cn2)C(=O)N[C@@H](C(C)C)C(=O)N2CCC[C@H]2C(=O)N1)C(C)C)C(=O)N[C@@H](CO)C(=O)N[C@@H](Cc1ccccc1)C(=O)N[C@@H](Cc1ccc(O)cc1)C(=O)N[C@@H](CCCCN)C(=O)O` [lassotide 36] (GGRGHVPEYFVRGDLISFYK-OH; lactam N-8), the IC50 is more than 10 µM in experiment [1]; more than 45 µM in [3]; more than 45 µM in experiment [4]; more than 45 µM in [5]; more than 45 µM in [8]; more than 45 µM in experiment [9]. Besides, the IC50 in experiment [10] is more than 45 µM. In addition, the EC50 in experiment [2], in [6] and in experiment [7] was more than 45 µM throughout. Further, the Emax in experiment [2] is 2.03%; in experiment [3] it was 8.3%; in experiment [4], 2.52%; in [5], 11.8%; in [6], 0%; in [7] it was 0%. For the same molecule, the values for the Emax in [8], in [9] and in [10] were 0%, 29.8% and 0.35%, respectively.
Regarding `CC[C@H](C)[C@H](NC(=O)[C@H](CC(C)C)NC(=O)[C@H](CC(=O)O)NC(=O)CNC(=O)[C@H](CCCNC(=N)N)NC(=O)[C@@H](NC(=O)[C@H](Cc1ccccc1)NC(=O)[C@H](Cc1ccc(O)cc1)NC(=O)[C@@H]1CCC(=O)NCC(=O)NCC(=O)N[C@@H](CCCNC(=N)N)C(=O)NCC(=O)N[C@@H](Cc2c[nH]cn2)C(=O)N[C@@H](C(C)C)C(=O)N2CCC[C@H]2C(=O)N1)C(C)C)C(=O)N[C@@H](CO)C(=O)N[C@@H](Cc1ccccc1)C(=O)N[C@@H](Cc1ccc(O)cc1)C(=O)N[C@@H](CCCCNC(=O)CCOCCOCCNC(=O)CCCc1ccc(I)cc1)C(=O)O` [lassotide 47] (GGRGHVPEYFVRGDLISFYK([PEG2-Butanoyl(4-(4-I-phenyl))])-OH; lactam N-8), the IC50 in experiment [1] was more than 10 µM; in experiment [3], more than 45 µM; in experiment [4], more than 45 µM; in experiment [5], more than 45 µM; in [8], more than 45 µM; in [9], more than 45 µM. Moreover, the IC50 in experiment [10] was more than 45 µM. Moreover, the EC50 in [2], in experiment [6] and in [7] was more than 45 µM each time. Moreover, the Emax came to 0% in [2]; 0% in experiment [3]; 0% in experiment [4]; 13.4% in [5]; 24.1% in experiment [6]; 0.79% in [7]. In addition, the Emax in experiment [8] came to 0%; in experiment [9] it was 13%; in experiment [10], 0%.

For the origin of these results see doi:10.1101/2025.01.28.635346v1 (bioRxiv, 2025).
